Where two headings read alike, the source gives them in different places.
Experiments:
[1] = Biodistribution of JV-DE1 after single periorbital skin administration (Example 3); type: in vivo, cynomolgus monkeys; conditions: for concentration at 3 h / concentration at 6 h / concentration at 0.5 h / concentration at 24 h: topical; for concentration at 3 h: 160.58 μg/right eye; for concentration at 6 h: 162.23 μg/right eye; for concentration at 0.5 h: 179.12 μg/right eye; for concentration at 24 h: 159.26 μg/right eye
Description: An additional experiment on JV-DE1 involving determining its bio-disposition following topical application to the periorbital skin that surrounds the anterior portion of the globe was performed.
JV-DE1 was formulated in medium chain triglyceride (MCT) oil. An amount of about 0.16 mg of JV-DE1 formulation was administered to one eye (OD) by circumferential topical application to the periorbital skin that surrounds the anterior portion of the globe. […] The following representative tissues were collected; upper eyelid, cornea, retina, and vitreous humor. JV-DE1 concentrations in the samples were subsequently determined by the LC-MS/MS method. The results are summarized below in Table 1

PAF receptor = PAF receptor (Homo sapiens, UniProt P25105); conditions: Bley K R et al. (2006); cited from earlier work
IP receptor = biological target: T1, IP receptor (Homo sapiens, UniProt P43119); conditions: U.S. Pat. No. 9,321,745; cited from earlier work
T1 construct: VEGF release from human immune cells when macrophages were primed with TNFα; endogenous in cells; host or cells: human macrophages primed with TNFα

[2] = Rabbit bio-disposition, eye-drop to one eye (OD) (Example 2); type: in vivo, New Zealand rabbits
Description: In order to verify that drug delivery of JV-DE1 was essentially confined to ocular redistribution other than via the blood circulation following contact of the eye-drop with the anterior segment ocular surface tissues, a monocular drug application study was performed. JV-DE1 was formulated in 2.4% CrEL and 0.2% glycerol in pH 7.6 TBS. CrEL is polyoxyl 35 castor oil. Other names for polyoxyl 35 castor oil include macrogolglycerol ricinoleate, PEG-35 castor oil, and […]. Briefly, for the bio-disposition experiment, JV-DE1 was administered to one eye (OD) via ocular instillation to said eye at a dose of 0.12 mg/eye. Blood samples (1 mL) and were collected at 0, 0.5, 2, 6, and 24 h after a single eye-drop ocular administration. At each of the above time points, one animal was euthanized after blood collection and selected eye tissue samples were collected from both eyes. Aqueous humor, bulbar conjunctiva, anterior sclera, posterior sclera (in the optic nerve exit region), retina, cornea, ciliary body, and iris were collected and weighed. The samples were then stored in an ultra-low temperature freezer. JV-DE1 concentrations in the samples were subsequently determined by the LC-MS/MS method.
JV-DE1 was widely distributed in the ocular tissues of the eye (OD) that received the compound. The concentration of JV-DE1 in ocular tissue levels were well-maintained over an 8 hour period post-dosing but had declined by 24 hours. The cornea, anterior sclera, and bulbar conjunctiva had the highest levels of JV-DE1 in the treated eye, which was about 100-fold greater than the JV-DE1 levels in the ciliary body/iris, posterior sclera, and retina. The most significant finding was the unexpected level of JV-DE1 in the vitreous humor. […] JV-DE1 levels in the retina of the contralateral, untreated eye were, however, one-tenth of those in the treated eye. […] Only about 10% achieved the retina by delivery from the bloodstream.

[3] = Rabbit pharmacokinetics and ocular tissue distribution, eye-drop to both eyes (Example 1); type: in vivo, New Zealand rabbits
Description: A retinal bioavailability study was performed on 4,5-dihydro-N-[4-[[4-(1-methylethoxy) phenyl] methyl] phenyl]-1H-imadazol-2-amine (assigned the coded notation JV-DE1). This study provided an indication that the compound formulated in an eye-drop and administered bilaterally to the anterior ocular surface was bioavailable in the retina. This pharmacokinetics and ocular tissue distribution study of JV-DE1 was performed in New Zealand rabbits. Briefly, […] (male) received JV-DE1 via ocular instillation to both eyes at a dose of 0.12 mg/eye. Blood samples (1 mL) were collected at 0, 0.5, 2, 4, 8, and 24 h after single ocular administration to both eyes. At each time point, one animal was euthanized after blood collection and then eye tissue samples were collected from both eyes. Aqueous humor, bulbar conjunctiva, anterior sclera, posterior sclera (in the optic nerve exit region), retina, cornea, ciliary body, and iris were collected and weighed. The samples were then stored in an ultra-low temperature freezer. Drug concentrations in the samples were subsequently determined by the LC-MS/MS method. Results are shown in FIG. 2A (right eye) and FIG. 2B (left eye).
JV-DE1 was widely distributed in the ocular tissues, and with no meaningful difference between the left and right eye, since drug administration was bilateral. JV-DE1 ocular tissue levels were well-maintained over an 8 hour period post-dosing but had declined by 24 hours. The cornea, anterior sclera, and bulbar conjunctiva had the highest levels of JV-DE1 in both eyes, whereas JV-DE1 levels were lower in those structures located within the globe. The most significant finding was the unexpectedly high levels of JV-DE1 in the retina and the posterior sclera, which underlies and supports the retina.

vascular IP receptor = vascular IP receptor (Homo sapiens, UniProt P43119); conditions: Jones R L et al. (2006); cited from earlier work
[4] = 0.5 h, 179.120 μg/right eye periorbital skin
[5] = 3 h, 160.580 μg/right eye periorbital skin
[6] = 6 h, 162.230 μg/right eye periorbital skin
[7] = 24 h, 159.260 μg/right eye periorbital skin

Chain of vascular IP receptor (P43119 whole entry): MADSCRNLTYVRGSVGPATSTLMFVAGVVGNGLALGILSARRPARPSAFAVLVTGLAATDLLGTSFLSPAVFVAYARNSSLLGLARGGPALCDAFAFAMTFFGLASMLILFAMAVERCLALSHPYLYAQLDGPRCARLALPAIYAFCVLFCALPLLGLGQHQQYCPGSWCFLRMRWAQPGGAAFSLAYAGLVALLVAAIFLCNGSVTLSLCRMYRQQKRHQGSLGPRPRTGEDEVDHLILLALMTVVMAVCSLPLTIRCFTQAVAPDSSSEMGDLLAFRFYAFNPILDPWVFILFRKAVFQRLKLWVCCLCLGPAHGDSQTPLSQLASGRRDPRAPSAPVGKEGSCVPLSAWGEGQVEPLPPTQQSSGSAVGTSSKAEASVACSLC
T1 sequence (P43119 whole entry): as above
Chain of PAF receptor (P25105 whole entry): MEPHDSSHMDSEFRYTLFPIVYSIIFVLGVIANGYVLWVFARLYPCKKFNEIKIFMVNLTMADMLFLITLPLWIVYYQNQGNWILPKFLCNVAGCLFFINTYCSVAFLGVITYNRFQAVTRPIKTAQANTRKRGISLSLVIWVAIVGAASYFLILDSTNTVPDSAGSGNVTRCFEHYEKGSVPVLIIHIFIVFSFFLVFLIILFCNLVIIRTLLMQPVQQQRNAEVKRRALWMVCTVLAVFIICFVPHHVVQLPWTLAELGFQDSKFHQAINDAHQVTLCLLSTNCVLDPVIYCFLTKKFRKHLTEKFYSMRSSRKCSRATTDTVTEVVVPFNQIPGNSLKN

% of administered dose, Right cornea [1, 4]: 0.00%
% of administered dose, Right retina [1, 4]: 0.09%
% of administered dose, Right upper eyelid [1, 4]: 0.64%
% of administered dose, Right vitreous humor [1, 4]: 4.67%
% of administered dose, Right cornea [1, 5]: 0.00%
% of administered dose, Right retina [1, 5]: 0.26%
% of administered dose, Right upper eyelid [1, 5]: 1.50%
% of administered dose, Right vitreous humor [1, 5]: 2.91%
% of administered dose, Right cornea [1, 6]: 0.00%
% of administered dose, Right retina [1, 6]: 0.25%
% of administered dose, Right upper eyelid [1, 6]: 0.48%
% of administered dose, Right vitreous humor [1, 6]: 3.13%
% of administered dose, Right cornea [1, 7]: 0.00%
% of administered dose, Right retina [1, 7]: 0.05%
% of administered dose, Right upper eyelid [1, 7]: 0.60%
% of administered dose, Right vitreous humor [1, 7]: 1.79%
Drug Concentration in Plasma ([1]; 24 h, 159.260 μg/right eye periorbital skin, animal 104, LLOQ 0.1 ng/ml): BLQ
drug level in retina at all tested time points ([1]; NIODP 165.30±4.65 μg/eye (OD)): greater than 1000 ng/g
drug level delivered to retina via NIODP ([1]; all tested time points): > 1 µg/g
plasma concentrations ([1]; all time points, LLOQ 0.1 ng/ml): less than 0.3 ng/ml
Cmax ([1]; cynomolgus monkey, plasma, topical or ocular, 0.16 mg, single dose monocular periorbital administration, over the 6 hour post-dose period): 0.13 to 0.26 ng/mL
concentration at 3 h ([1]; cynomolgus monkey, plasma, 3 h, 160.580 μg/right eye periorbital skin, animal 102, read-out: Drug Concentration in Plasma): 0.21 ng/mL
concentration at 6 h ([1]; cynomolgus monkey, plasma, 6 h, 162.230 μg/right eye periorbital skin, animal 103, read-out: Drug Concentration in Plasma): 0.26 ng/mL
concentration at 0.5 h ([1]; cynomolgus monkey, plasma, 0.5 h, 179.120 μg/right eye periorbital skin, animal 101, read-out: Drug Concentration in Plasma): 0.131 ng/mL
concentration at 24 h ([1]; cynomolgus monkey, right cornea, 24 h, 159.260 μg/right eye periorbital skin, read-out: Drug Concentration in Tissue, Right cornea): 5.5 ng/g
concentration at 3 h ([1]; cynomolgus monkey, right cornea, 3 h, 160.580 μg/right eye periorbital skin, read-out: Drug Concentration in Tissue, Right cornea): 27.9 ng/g
concentration at 6 h ([1]; cynomolgus monkey, right cornea, 6 h, 162.230 μg/right eye periorbital skin, read-out: Drug Concentration in Tissue, Right cornea): 45.5 ng/g
concentration at 0.5 h ([1]; cynomolgus monkey, right cornea, 0.5 h, 179.120 μg/right eye periorbital skin, read-out: Drug Concentration in Tissue, Right cornea): 39.6 ng/g
concentration at 24 h ([1]; cynomolgus monkey, right retina, 24 h, 159.260 μg/right eye periorbital skin, read-out: Drug Concentration in Tissue, Right retina): 1620 ng/g
concentration at 3 h ([1]; cynomolgus monkey, right retina, 3 h, 160.580 μg/right eye periorbital skin, read-out: Drug Concentration in Tissue, Right retina): 16700 ng/g
concentration at 6 h ([1]; cynomolgus monkey, right retina, 6 h, 162.230 μg/right eye periorbital skin, read-out: Drug Concentration in Tissue, Right retina): 23900 ng/g
concentration at 0.5 h ([1]; cynomolgus monkey, right retina, 0.5 h, 179.120 μg/right eye periorbital skin, read-out: Drug Concentration in Tissue, Right retina): 9300 ng/g
concentration at 24 h ([1]; cynomolgus monkey, right upper eyelid, 24 h, 159.260 μg/right eye periorbital skin, read-out: Drug Concentration in Tissue, Right upper eyelid): 11600 ng/g
concentration at 3 h ([1]; cynomolgus monkey, right upper eyelid, 3 h, 160.580 μg/right eye periorbital skin, read-out: Drug Concentration in Tissue, Right upper eyelid): 32500 ng/g
concentration at 6 h ([1]; cynomolgus monkey, right upper eyelid, 6 h, 162.230 μg/right eye periorbital skin, read-out: Drug Concentration in Tissue, Right upper eyelid): 7950 ng/g
concentration at 0.5 h ([1]; cynomolgus monkey, right upper eyelid, 0.5 h, 179.120 μg/right eye periorbital skin, read-out: Drug Concentration in Tissue, Right upper eyelid): 26500 ng/g
concentration at 24 h ([1]; cynomolgus monkey, right vitreous humor, 24 h, 159.260 μg/right eye periorbital skin, read-out: Drug Concentration in Tissue, Right vitreous humor): 19 ng/g
concentration at 3 h ([1]; cynomolgus monkey, right vitreous humor, 3 h, 160.580 μg/right eye periorbital skin, read-out: Drug Concentration in Tissue, Right vitreous humor): 7.79 ng/g
concentration at 6 h ([1]; cynomolgus monkey, right vitreous humor, 6 h, 162.230 μg/right eye periorbital skin, read-out: Drug Concentration in Tissue, Right vitreous humor): 3.9 ng/g
concentration at 0.5 h ([1]; cynomolgus monkey, right vitreous humor, 0.5 h, 179.120 μg/right eye periorbital skin, read-out: Drug Concentration in Tissue, Right vitreous humor): 15.2 ng/g
biodistribution via NIODP ([1]; periorbital skin): eyelid≥retina>>cornea≥vitreous humor
time to complete clearance from plasma ([1]; single dose monocular periorbital administration): ≤ 24 h
Cmax ([2]; New Zealand, rabbit, plasma, topical or ocular, ocular instillation to one eye (OD), 0.12 mg/eye, at 0.5 hours post-dose): 0.95 ng/mL
retina level of contralateral untreated eye relative to treated eye ([2]; OS vs OD): one-tenth
share of drug reaching the retina by delivery from the bloodstream ([2]; monocular eye-drop): about 10%
share of drug reaching the retina by intra-global redistribution of the eye-drop ([2]; monocular eye-drop): 90%
time to complete clearance from plasma ([2]; ocular instillation to one eye (OD), 0.12 mg/eye): ≤ 24 h
levels in cornea, anterior sclera and bulbar conjunctiva relative to ciliary body/iris, posterior sclera and retina ([2]; treated eye (OD)): about 100 fold
drug level delivered to the anterior chamber of the eye as an eye drop ([3]; eye drop): > 1 µg/g
retina distribution after eye-drop ([3]; eye-drop administration): less than 60 ng/g
Cmax ([3]; male, New Zealand, rabbit, plasma, topical or ocular, ocular instillation to both eyes, 0.12 mg/eye, at 0.5 hours post-dose): ~2 ng/mL
plasma clearance at 24 hours post dose ([3]; ocular instillation to both eyes, 0.12 mg/eye): good clearance
SMILES: CC(C)Oc1ccc(Cc2ccc(NC3=NCCN3)cc2)cc1 [JV-DE1, 4,5-dihydro-N-[4-[[4-(1-methylethoxy)phenyl]methyl]phenyl]-1H-imadazol-2-amine]
pKi (PAF receptor): 7.9
VEGF release induced by cicaprost in the presence of TNFα (IP receptor): abolished
tissues with detectable compound in contralateral untreated eye (OS) ([2]; monocular eye-drop to OD): detected only in the cornea, posterior sclera, and retina
biodistribution dose gradient, eye drops ([3]; eye drops): cornea≥conjunctiva≥anterior sclera≈iris≥ciliary body≥posterior sclera≥aqueous humor≥retina
pA2 (vascular IP receptor): 8.2
